According to patent publication US11091476B2, “Protein kinase inhibitors, preparation method and medical use thereof” (Gan & Lee Pharmaceuticals, priority 2015, dated 2021):
Entries after “also recorded” stand apart in the source; their conditions may differ. Read-outs that look alike come from different tables or passages of the source.

How the values were obtained:
[1] = Plasma and brain exposure levels after single intragastric administration; format: in vivo, CD-1 mice; settings: for Cmax: read-out: Blood concentration Cmax, Plasma
Protocol: The CD-1 mice were used as the test animals, the concentrations of the drugs in the plasma and brain tissue of mice at different time points after single intragastric administration of the representative compound of this disclosure were determined by LC/MS/MS, so as to study the plasma level and brain exposure level of the compounds of the disclosure in mice.
For each test drug, 12 male CD-1 mice were administered intragastrically at a dose of 10 mg/kg and an administration volume of 10 ml/kg after fasting overnight.
The whole brain was collected, mashed and frozen in liquid nitrogen. Ten hours after administration, the remaining animals were sacrificed, whole blood was collected by cardiac puncture, and the whole brain was collected, mashed and frozen in liquid nitrogen.
The whole brain was collected, mashed and frozen in liquid nitrogen. 48 hours after administration, the remaining animals were sacrificed, whole blood was collected by cardiac puncture, and the whole brain was collected, mashed and frozen in liquid nitrogen.
Treatment of the whole blood sample: The collected whole blood was anticoagulated with EDTA-K2, and centrifuged, the supernatant was removed, and the residue was frozen and stored at −20° C. until the sample was analyzed by LC-MS/MS.
Brain homogenate sampling: Brain homogenate were dispersed with PBS (pH=7.4): MeOH (v:v, 2:1) solution in a volume 5 times of the volume of the brain homogenate. 100 μl of solution was taken, and the protein therein was precipitated with 600 μl IS. The mixture was centrifuged at 13,000 rpm and 20-25° C. for 15 minutes. 50 μL of the supernatant was mixed with 150 μL of water containing 0.3% FA and centrifuged at 4° C. 5 μL of the sample was analyzed by LC-MS/MS.
The linear range of sample analysis was 1-2000 ng/ml, and the lowest quantification limit was 1 ng/ml.

CDK6/CyclinD3 = CDK6/CyclinD3 (Homo sapiens (Human), UniProt Q00534); assay: CDK kinase inhibitory activity, ADP-Glo Kinase Assay, CDK6/CyclinD3; format: biochemical
CDK2/CyclinE1 = CDK2/CyclinE1 (Homo sapiens (Human), UniProt P24941); assay: Kinase inhibitory activity on CDK2/CyclinE1; format: biochemical
Protocol: (§1) 1.2 Experimental Preparation • 1.2.1 Preparation of Kinase Reaction Buffer I: The 5×Reaction Buffer A (Promega; V307A-C) provided in the kit was mixed and diluted with MILLI-Q® H2O and 0.1 M DTT (dithiothreitol) to give 4× kinase buffer, and then MILLI-Q® H2O was further added to finally formulate the solution into 1× Kinase buffer.
1 μl of 10 mM standard substance stock solution was taken and added to 9 μl of kinase reaction buffer I and mixed well; then 90 μl of kinase reaction buffer I was added and mixed well; then 100 μl of kinase reaction buffer I was added and mixed well. The final concentration was 50 μM. • b. 40 μl of kinase reaction buffer II was added into B2 to B10 of a 96-well plate, and 50 μl of the above solution was added into B1; • c. 10 μl of solution was taken from well B1, added into B2, and mixed well; then 10 μl of the resulting solution was taken and added into B3, and dilution was carried out in sequence to B9, so as to obtain control solutions that are diluted by 5-fold sequentially. • (2) Preparation of test compound solution: • a. […]
(§2) The inhibition rate of each compound at each concentration point was calculated by the formula as follows and curve fitting was performed by GraphPad Prism 5 software to obtain the IC50 value.

CDK9/CyclinD3 = CDK9/CyclinD3 (Homo sapiens (Human), UniProt P50750); assay: Kinase inhibitory activity, ADP-Glo Kinase Assay, CDK9/CyclinD3; format: biochemical
Procedure, shortened: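 Human CDK9/CyclinD3 ADP-Glo assay: compounds in 5-fold serial dilutions from 50 μM preincubated with kinase, then substrate plus ATP (50 μM ATP solution, stock concentration before mixing) added for 90 min at 37° C. ADP-Glo and detection reagents added, luminescence read; IC50 fitted from inhibition rates.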

Pim-1 = Pim-1 (Homo sapiens (Human), UniProt P11309); assay: Kinase inhibitory activity on Pim-1; format: biochemical
Protocol: as §1
1 μl of 10 mM standard substance stock solution was taken and added to 9 μl of kinase reaction buffer I and mixed well; then 90 μl of kinase reaction buffer I was added and mixed well; then 100 μl of kinase reaction buffer I was added and mixed well. The final concentration was 50 μM. • b. 40 μl of kinase reaction buffer II was added into B2 to B10 of a 96-well plate, and 50 μl of the above solution was added into B1; • c. 10 μl of solution was taken from well B1, added into B2, and mixed well; then 10 μl of the resulting solution was taken and added into B3, and dilution was carried out in sequence to B9, so as to obtain control solutions that are diluted by 5-fold sequentially. • (2) Preparation of test compound solution: • a. Test compound solutions at a certain concentration were taken, respectively, diluted with kinase reaction buffer I to a final concentration of 50 μM compound solution; • b. 40 μl of kinase reaction buffer II was added into H2 to H10 of the 96-well plate; and 50 μl of the above solution was added into H1; • c. 10 μl of solution was taken from well H1, added into H2, and mixed well; then 10 μl of the resulting solution was taken and added into H3, and dilution was carried out in sequence to H9, so as to obtain test compound solutions that are diluted by 5-fold sequentially. • 1.2.4 Preparation of a mixed solution of reaction substrate and ATP: • a. Preparation of ATP solution: • 200 μl of 0.1 mM ATP solution: 2 μl of 10 mM ATP was added to 198 μl of kinase reaction buffer I; • 300 μl of 50 μM ATP solution: 150 μl of kinase reaction buffer I was added to 150 μl of the above 0.1 mM ATP solution; • b. Preparation of 300 μl of reaction substrate solution: • 150 μl 1 μg/μl reaction substrate stock solution was added to 150 μl kinase reaction buffer I, and mixed well; • c. The above a/b solutions were mixed to obtain mixed solutions, respectively.
1.3 Experimental process: • 1.3.1: 2 μl of compound solutions of various concentrations were taken, added to a 384-well plate, and centrifuged 3 minutes; • 1.3.2: 4 μl of kinase solution was added to each well, centrifuged at 5000 rpm and 18° C. for 10 minutes, and shaken on a plate shaker for 10 minutes; • 1.3.3: 4 μl of mixed solution of substrate and ATP was added to each well, centrifuged at 5000 rpm and 18° C. for 10 minutes, and shaken on a plate shaker at 37° C. for 90 minutes; • 1.3.4: The 384-well plate was taken out, and allowed to stand to room temperature; • 1.3.5: 10 μl of ADP-GLO™ reagent was added to each well, centrifuged at 5000 rpm and 18° C. for 18 minutes, and shaken on a plate shaker at 25° C. for 40 minutes, and then the reaction was stopped; • 1.3.6: 20 μl of kinase detection reagent was added to each well, centrifuged at 5000 rpm and 18° C. for 10 minutes, and shaken on a plate shaker at 25° C. for 30 minutes; and • 1.3.7: M1000pro MICROPLATE READER was used to read […] values.
as §2

CDK1/CyclinA2 = CDK1/CyclinA2 (Homo sapiens (Human), UniProt P06493); assay: CDK kinase inhibitory activity, ADP-Glo Kinase Assay, CDK1/CyclinA2; format: biochemical
[2] = male, mouse, po, CD-1 mice, intragastric 10 mg/kg, brain, read-out: Area under curve AUC0-last, Brain
[3] = male, mouse, po, CD-1 mice, intragastric 10 mg/kg, brain, read-out: The time for blood concentration reaching peak Tmax, Brain
[4] = male, mouse, po, CD-1 mice, intragastric 10 mg/kg, plasma, read-out: Area under curve AUC0-last, Plasma
[5] = male, mouse, po, CD-1 mice, intragastric 10 mg/kg, plasma
[6] = male, mouse, po, CD-1 mice, intragastric 10 mg/kg, plasma, read-out: The time for blood concentration reaching peak Tmax, Plasma

| Compound | AUC(0-t) [1, 2] [ng·h/mL] | Tmax [1, 3] [h] | AUC(0-t) [1, 4] [ng·h/mL] | Cmax [1, 5] [ng/mL] | Tmax [1, 6] [h] | IC50 (CDK6/CyclinD3) [nM] | Inhibitory effect on CDK6, in words (CDK6/CyclinD3; test conclusion) | IC50 (CDK2/CyclinE1) [nM] | IC50 (CDK9/CyclinD3) [nM] | IC50 (Pim-1) [nM] | IC50 (CDK1/CyclinA2) [nM] | Blood concentration Cmax, Brain ([1]; CD-1 mice, intragastric 10 mg/kg, brain) [ng/mL] | Kp ([1]; male, mouse, brain/plasma, po, CD-1 mice, intragastric 10 mg/kg, ratio, read-out: Cmax Brain/Plasma) | Blood brain distribution, in words ([1]; mice, relative to LY2835219) | CDK1/CDK6 (CDK6/CyclinD3; ratio of IC50s, selectivity for CDK6 over CDK1) | CDK9/CDK6 (CDK6/CyclinD3; ratio of IC50s, selectivity for CDK6 over CDK9) | Pim-1/CDK6 (CDK6/CyclinD3; ratio of IC50s, selectivity for CDK6 over Pim-1) |
| --- | --- | --- | --- | --- | --- | --- | --- | --- | --- | --- | --- | --- | --- | --- | --- | --- | --- |
| CCN1CCN(Cc2ccc(Nc3ncc(F)c(-c4cc(F)c5nc(C)n(C(C)C)c5c4)n3)nc2)CC1 [LY2835219, reference compound] | 1110 | 6 | 4250 | 836 | 1.5 |  |  |  |  |  |  |  |  |  |  |  |  |
| CC1=Nc2c(F)cc(-c3nc(Nc4ccc(C5CCN(C)CC5)cn4)ncc3F)cc2C12CCCC2 [Example 17, 5-Fluoro-4-(7′-fluoro-2′-methylspiro[cyclopentane-1,3′-indol]-5′-yl)-N-(5-(1-methylpiperidin-4-yl)pyridin-2-yl)pyrimidine-2-amino] | 16800 | 4 | 7660 | 639 | 4 | 0.73 | higher enzymatic activity for CDK6 | 2320 | 5.36 | 38.3 | 2710 | 1270 | 1.98 | better blood brain distribution; also recorded: good blood-brain distribution |  |  |  |
| CCN1CCC(c2ccc(Nc3ncc(F)c(-c4cc(F)c5c(c4)C4(CCCC4)C(C)=N5)n3)nc2)CC1 [Example 12, N-(5-(1-ethylpiperidin-4-yl)pyridin-2-yl)-5-fluoro-4-(7′-fluoro-2′-methylspiro [cyclopentane-1,3′-indol]-5′-yl)pyrimidine-2-amino] |  |  |  |  |  | 3.78 |  | 394 | 57.2 | 15.1 | 1070 |  |  |  | 283.33 | 18.75 | 3.99 |
